This note sets out measurements from the C3SDB collision cross section collection.

The conditions of the series: instrument: DT, stepped-field.

As to `CCCCC/C=C\C/C=C\CCCCCCCC(=O)O[C@H](COC(=O)CCCCCCCCCCCCC)COP(=O)([O-])OCC[N+](C)(C)C` [PC(32:02)], the “collision cross section (N2)” value ([M+Na]+) was 276.86 Å².
As for `CCCCCC/C=C\CCCCCCCCCC(=O)O[C@H](COC(=O)CCCCCCC/C=C\CCCCCC)COP(=O)([O-])OCC[N+](C)(C)C` [PC(34:02)], the “collision cross section (N2)” value came to 289.37 Å² ([M+Cl]-); 289.31 Å² ([M+HCOO]-); 279.51 Å² ([M+H]+); 283.28 Å² ([M+K]+); 283.1 Å² ([M+Na]+).
Take `CCCC/C=C\CCCCCCCC(=O)OC[C@H](COP(=O)([O-])OCC[N+](C)(C)C)OC(=O)CCCCCCCCC/C=C\C/C=C\CCCCC` [PC(34:03)]: the “collision cross section (N2)” value runs as follows: ([M+Cl]-) 287.96 Å²; ([M+HCOO]-) 288.8 Å²; ([M+H]+) 277.12 Å²; ([M+Na]+) 281.98 Å².
Take `CCCCCCCC/C=C\CCCCCCCC(=O)O[C@H](COC(=O)CCCCCCCCCCCCCCCC)COP(=O)([O-])OCC[N+](C)(C)C` [PC(35:01)]: the “collision cross section (N2)” value runs as follows: ([M+H]+) 284.63 Å²; ([M+Na]+) 287.14 Å².
Consider `CCCCCCCCCCC/C=C\CCCCC(=O)O[C@H](COC(=O)CCCCCCCCCCCCCCCCC)COP(=O)([O-])OCC[N+](C)(C)C` [PC(36:01)], for which the “collision cross section (N2)” value was 292.02 Å² ([M+2Na-H]+); 296.27 Å² ([M+Cl]-); 296.46 Å² ([M+HCOO]-); 288.22 Å² ([M+H]+); 291.07 Å² ([M+K]+); 290.25 Å² ([M+Na]+).
Consider `CCCCCCCC/C=C\C/C=C\CCCCC(=O)O[C@H](COC(=O)CCCCCCC/C=C\CCCCCCCC)COP(=O)([O-])OCC[N+](C)(C)C` [PC(36:03)], for which the “collision cross section (N2)” value by setting is: ([M+2Na-H]+) 288.51 Å²; ([M+Cl]-) 293.42 Å²; ([M+HCOO]-) 293.56 Å²; ([M+Na]+) 287.02 Å².
As for `CCCCC/C=C\C/C=C\CCCCCCCCCC(=O)O[C@H](COC(=O)CCCCCCCCCCCCCCCCC)COP(=O)([O-])OCC[N+](C)(C)C` [PC(38:02)], the “collision cross section (N2)” value ([M+Cl]-) is 300.55 Å².
`CCCCC/C=C\C/C=C\C/C=C\CCCCCCC(=O)O[C@H](COC(=O)CCCCCCC/C=C\CCCCCCCC)COP(=O)([O-])OCC[N+](C)(C)C` [PC(38:04)]: the “collision cross section (N2)” value by setting is: ([M+Cl]-) 298.46 Å²; ([M+HCOO]-) 298.03 Å².
In the case of `CCCCC/C=C\C/C=C\C/C=C\C/C=C\CCCC(=O)O[C@H](COC(=O)CCCCCCCCCCCCCCCCCCC)COP(=O)([O-])OCC[N+](C)(C)C` [PC(40:04)], the “collision cross section (N2)” value ([M+Na]+) is listed as 297.42 Å².
As for `CC/C=C\C/C=C\C/C=C\CCCCCCCC(=O)O[C@H](COC(=O)CCCCCCCCCCCCCCC)COP(=O)(O)OCCN` [PE(34:03)], the “collision cross section (N2)” value ([M+2Na-H]+) came out at 271.16 Å², the “collision cross section (N2)” value ([M+H]+) stood at 265.93 Å², the “collision cross section (N2)” value ([M+Na]+) was 271.73 Å² and the “collision cross section (N2)” value ([M-H]-) is reported as 263.76 Å².
Regarding `CCCC/C=C\CCCCCCCC(=O)OC[C@H](COP(=O)(O)OCCN)OC(=O)CCCCCCCCCCCCCCCCCCCC` [PE(35:01)], the “collision cross section (N2)” value amounted to 279.57 Å² ([M+2Na-H]+) and 279.26 Å² ([M+Na]+).
In the case of `CCCCC/C=C\C/C=C\CCCCCCCCCC(=O)O[C@H](COC(=O)CCCCCCC/C=C\CCCCCC)COP(=O)(O)OCCN` [PE(36:03)], the “collision cross section (N2)” value by setting is: ([M+2Na-H]+) 279.42 Å²; ([M+H]+) 273.34 Å²; ([M+K]+) 278.94 Å²; ([M+Na]+) 277.57 Å²; ([M-H]-) 269.84 Å².
For the molecule `CCCCCCCC/C=C\C/C=C\CCCCC(=O)OC[C@H](COP(=O)(O)OCCN)OC(=O)CCCC/C=C\C/C=C\CCCCCCCC` [PE(36:04)], the “collision cross section (N2)” value by setting is: ([M+2Na-H]+) 277.05 Å²; ([M+K]+) 277.24 Å²; ([M-H]-) 269.7 Å².
The like results for `CCCCC/C=C\C/C=C\C/C=C\CCCCCCC(=O)O[C@H](COC(=O)CCCCCCC/C=C\C/C=C\CCCCC)COP(=O)(O)OCCN` [PE(38:05)] were, in that order, 283.55 Å², 282.77 Å² and 274.82 Å².
`CCCCC/C=C\C/C=C\C/C=C\C/C=C\CCCCCC(=O)O[C@H](COC(=O)CCCCCCC/C=C\C/C=C\CCCCC)COP(=O)(O)OCCN` [PE(40:06)]: the “collision cross section (N2)” value ([M+2Na-H]+) is reported as 287.86 Å² and the “collision cross section (N2)” value ([M-H]-) is given as 280.5 Å².
As for `CCCCC/C=C\C/C=C\C/C=C\C/C=C\CCCCCC(=O)O[C@H](COC(=O)CCC/C=C\C/C=C\C/C=C\C/C=C\CCCCC)COP(=O)(O)OCCN` [PE(42:08)], the “collision cross section (N2)” value ([M+Na]+) is 290.41 Å².
As to `CC/C=C\C/C=C\C/C=C\C/C=C\C/C=C\C/C=C\CCC(=O)O[C@H](COC(=O)CCCCCC/C=C\C/C=C\C/C=C\CCCCC)COP(=O)(O)OCCN` [PE(42:09)], the “collision cross section (N2)” value ([M+Na]+) was determined as 288.64 Å².
`CCCC/C=C\CCCCCCCC(=O)O[C@H](COCCCCCCCCCCCCCCCCCC)COP(=O)(O)OCCN` [PE(o32:01)]: the “collision cross section (N2)” value ([M+2Na-H]+) is 268.35 Å².
Regarding `CCCCC/C=C\C/C=C\CCCCCCCC(=O)O[C@H](COCCCCCCCCCCCCCCCC)COP(=O)(O)OCCN` [PE(o34:02)], the “collision cross section (N2)” value ([M+2Na-H]+) is given as 273.55 Å² and the “collision cross section (N2)” value ([M+Na]+) is listed as 273.65 Å².
Take `CCCCC/C=C\C/C=C\C/C=C\CCCCC(=O)O[C@H](COCCCCCCCCCCCCCCCCCC)COP(=O)(O)OCCN` [PE(o36:03)]: the “collision cross section (N2)” value by setting is: ([M+2Na-H]+) 279.47 Å²; ([M+H]+) 272.47 Å²; ([M+Na]+) 277.92 Å².
In the case of `CCCCC/C=C\C/C=C\C/C=C\C/C=C\CCCC(=O)O[C@H](COCCCCCCCCCCCCCCCC)COP(=O)(O)OCCN` [PE(o36:04)], the “collision cross section (N2)” value ([M+2Na-H]+) amounted to 278.13 Å².
Still for that read-out and setting: then `CCCCC/C=C\C/C=C\C/C=C\C/C=C\C/C=C\CCC(=O)O[C@H](COCCCCCCCCCCCCCCCC)COP(=O)(O)OCCN` [PE(o38:05)], with 282.48 Å²; and `CCCCC/C=C\C/C=C\C/C=C\C/C=C\CCCCCC(=O)O[C@H](COCCCCCCCCCCCCCCCCCC)COP(=O)(O)OCCN` [PE(o40:04)], with 293.52 Å².
Consider `CCCCCCCC/C=C\CCCCCCCC(=O)O[C@H](COC(=O)CCCCCCCCCCCCCCCCC)COP(=O)(O)OC[C@H](N)C(=O)O` [PS(36:01)], for which the “collision cross section (N2)” value runs as follows: ([M+2Na-H]+) 287.95 Å²; ([M+H]+) 283.39 Å²; ([M+K]+) 287.48 Å²; ([M-H]-) 282.92 Å².
Take `CCCCC/C=C\C/C=C\C/C=C\C/C=C\CCCCCC(=O)OC[C@H](COP(=O)(O)OC[C@H](N)C(=O)O)OC(=O)CCCCCCCCCCCCC` [PS(36:04)]: the “collision cross section (N2)” value ([M+2Na-H]+) came to 281.53 Å².
Consider `CCCCCC/C=C\CCCCCCCC(=O)OC[C@H](COP(=O)(O)OC[C@H](N)C(=O)O)OC(=O)CCCCCCCCC/C=C\CCCCCCCCCC` [PS(38:02)], for which the “collision cross section (N2)” value is recorded as 292.46 Å² ([M+2Na-H]+), 287.73 Å² ([M+H]+) and 287.56 Å² ([M-H]-).
As to `CCCCC/C=C\C/C=C\CCCCCCCCCCCC(=O)O[C@H](COC(=O)CCCCCCCCCCCCCCCCC)COP(=O)(O)OC[C@H](N)C(=O)O` [PS(40:02)], the “collision cross section (N2)” value is, setting by setting: ([M+2Na-H]+) 299.44 Å²; ([M+H]+) 294.02 Å².
`CCCCC/C=C\C/C=C\CCCCCCCCCCCC(=O)O[C@H](COC(=O)CCCCCCC/C=C\CCCCCCCC)COP(=O)(O)OC[C@H](N)C(=O)O` [PS(40:03)]: the “collision cross section (N2)” value is, setting by setting: ([M+H]+) 292.62 Å²; ([M+Na]+) 296.28 Å².
In the case of `CCCCC/C=C\C/C=C\C/C=C\C/C=C\CCCCCC(=O)O[C@H](COC(=O)CCCCCCC/C=C\C/C=C\CCCCC)COP(=O)(O)OC[C@H](N)C(=O)O` [PS(40:06)], the “collision cross section (N2)” value by setting is: ([M+2Na-H]+) 295.61 Å²; ([M+H]+) 287.73 Å²; ([M+K]+) 292.76 Å²; ([M+Na]+) 291.7 Å²; ([M-H]-) 289.09 Å².
In the case of `CC/C=C\C/C=C\C/C=C\CCCCCCCC(=O)O[C@H](COC(=O)CCCCC/C=C\C/C=C\C/C=C\C/C=C\CCCCC)COP(=O)(O)OC[C@H](N)C(=O)O` [PS(40:07)], the “collision cross section (N2)” value reads like this: ([M+2Na-H]+) 290.15 Å²; ([M+Na]+) 289.65 Å²; ([M-H]-) 287.37 Å².
For `CC/C=C\C/C=C\C/C=C\C/C=C\C/C=C\CCCC(=O)O[C@H](COC(=O)CCCCCC/C=C\C/C=C\C/C=C\CCCCC)COP(=O)(O)OC[C@H](N)C(=O)O` [PS(40:08)], the “collision cross section (N2)” value ([M+2Na-H]+) is 287.97 Å².
Still for that read-out and setting: then `CC/C=C\C/C=C\C/C=C\C/C=C\C/C=C\CCCC(=O)OC[C@H](COP(=O)(O)OC[C@H](N)C(=O)O)OC(=O)CCCCCCCCCCCCCCCCCCCC` [PS(41:05)], with 298.43 Å².
With `CCCCCCCCCC/C=C\CCCCCCCCCC(=O)O[C@H](COC(=O)CCCCCCCCCCCCCCCCCCC)COP(=O)(O)OC[C@H](N)C(=O)O` [PS(42:01)], the “collision cross section (N2)” value ([M+H]+) was determined as 301.86 Å² and the “collision cross section (N2)” value ([M+Na]+) worked out at 303.25 Å².
On to `CC/C=C\C/C=C\C/C=C\C/C=C\C/C=C\C/C=C\CCC(=O)O[C@H](COC(=O)CCCCCCCCC/C=C\CCCCCCCC)COP(=O)(O)OC[C@H](N)C(=O)O` [PS(42:07)], for which the “collision cross section (N2)” value ([M+2Na-H]+) is 296.35 Å².
